One assay deals with T1, p38 MAP Kinase a (Homo sapiens, UniProt Q16539).
T1 construct: purchased Upstate (Dundee UK)
The assay can be described thus: p38 MAP Kinase activity, radiometric filter-binding assay (Upstate). As to conditions: IC50 range; read-out: Inhibitor activity versus p38 MAPKa. The class given is biochemical. The procedure:
The ability of compounds to inhibit p38 MAP a Kinase activity was measured in an assay performed by Upstate (Dundee UK). In a final reaction volume of 25 μL, p38 MAP Kinase a (5-10 mU) is incubated with 25 mM Tris pH 7.5, 0.002 mMEGTA, 0.33 mg/mL myelin basic protein, 10 mM MgAcetate and [g-33P-ATP] (specific activity approx. 500 cpm/pmol, concentration as required). The reaction is initiated by the addition of the MgATP mix. After incubation for 40 minutes at room temperature, the reaction is stopped by the addition of 5 μL of a 3% phosphoric acid solution. 10 μL of the reaction is then spotted onto a P30 filtermat and washed three times for 5 minutes in 75 mM phosphoric acid and once in methanol prior to drying and scintillation counting.
Duplicate data points are generated from a 1/3 log dilution series of a stock solution in DMSO. Nine dilutions steps are made from a top concentration of 10 μM, and a ‘no compound’ blank is included. The standard radiometric filter-binding assay is performed at an ATP concentration at, or close to, the Km. Data from scintillation counts are collected and subjected to free-fit analysis by Prism software. From the curve generated, the concentration giving 50% inhibition is determined and reported.

A further assay concerns THP-1 TNFα release. Kind of assay: LPS-stimulation of THP-1 cells, TNF-α release by ELISA. Type of assay: cell-based. The note with it: Homo sapiens, THP-1, 6 h; read-out: Inhibitor activity versus THP-1 TNFα release. As for the experimental part:
THP-1 cells were plated in 100 μl at a density of 4×10^4 cells/well in V-bottomed 96 well tissue culture treated plates and incubated at 37° C. in 5% CO2 for 16 hrs. 2 hrs after the addition of the inhibitor in 100 μl of tissue culture media, the cells were stimulated with LPS (E coli strain 005:B5, Sigma) at a final concentration of 1 μg/ml and incubated at 37° C. in 5% CO2 for 6 hrs. TNF-α levels were measured from cell-free supernatants by sandwich ELISA (R&D Systems #QTA00B).

T1 sequence (Q16539 whole entry): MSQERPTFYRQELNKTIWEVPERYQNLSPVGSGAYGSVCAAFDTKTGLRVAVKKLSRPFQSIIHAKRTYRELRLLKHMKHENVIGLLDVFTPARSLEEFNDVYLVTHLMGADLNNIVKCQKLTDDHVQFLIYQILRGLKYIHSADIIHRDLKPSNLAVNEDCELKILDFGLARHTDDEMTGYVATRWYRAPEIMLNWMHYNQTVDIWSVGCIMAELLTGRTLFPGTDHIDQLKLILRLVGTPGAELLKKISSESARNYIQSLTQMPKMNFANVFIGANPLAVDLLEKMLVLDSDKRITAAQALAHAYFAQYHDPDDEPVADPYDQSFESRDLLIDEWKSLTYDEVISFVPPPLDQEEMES

Regarding `Nc1c(C(=O)c2ccc(F)cc2F)ccc(=O)n1-c1ccc(CCN[C@H](C(=O)OC2CCCC2)c2ccccc2)cc1` [Example 1], the IC50 was 100 to 1000 nM at p38 MAP Kinase a and under 100 nM with THP-1 TNFα release.
As for `CC(C)C[C@@H](NCCc1cc(F)c(-n2c(N)c(C(=O)c3ccc(F)cc3)ccc2=O)c(F)c1)C(=O)OC1CCCC1` [Example 29, Cyclopentyl N-(2-{4-[6-amino-5-(4-fluorobenzoyl)-2-oxopyridin-1(2H)-yl]-3,5-difluorophenyl}ethyl)-D-leucinate], the IC50 was 100 to 1000 nM on p38 MAP Kinase a and under 100 nM in the assay on THP-1 TNFα release.
With `CC(C)[C@H](NCCc1ccc(-n2c(N)c(C(=O)c3ccc(F)cc3F)ccc2=O)cc1)C(=O)OC1CCCC1` [Example 5, Cyclopentyl N-[2-(4-{6-amino-5-[(2,4-difluorophenyl)carbonyl]-2-oxopyridin-1(2H)-yl}phenyl)ethyl]-L-valinate], the IC50 at p38 MAP Kinase a was 100 to 1000 nM; in the assay with THP-1 TNFα release, under 100 nM.
Take `Nc1c(C(=O)c2ccc(F)cc2F)ccc(=O)n1-c1c(F)cc(CCN[C@H](C(=O)OC2CCCC2)c2ccccc2)cc1F` [Example 34, Cyclopentyl (2S)-[(2-{4-[6-amino-5-(2,4-difluorobenzoyl)-2-oxopyridin-1(2H)-yl]-3,5-difluorophenyl}ethyl)amino](phenyl)acetate]: the IC50 at p38 MAP Kinase a and with THP-1 TNFα release was under 100 nM throughout.
`CC[C@H](C)[C@H](NCCc1ccc(-n2c(N)c(C(=O)c3ccc(F)cc3F)ccc2=O)cc1)C(=O)OC1CCCC1` [Example 18, Cyclopentyl N-[2-(4-{6-amino-5-[(2,4-difluorophenyl)carbonyl]-2-oxopyridin-1(2H)-yl}phenyl)ethyl]-L-isoleucinate]: the IC50 at p38 MAP Kinase a is 100 to 1000 nM; in the assay on THP-1 TNFα release, under 100 nM.
For `CC(C)(C)OC[C@H](NCCc1cc(F)c(-n2c(N)c(C(=O)c3ccc(F)cc3F)ccc2=O)c(F)c1)C(=O)OC(C)(C)C` [Example 41, tert-butyl N-(2-{4-[6-amino-5-(2,4-difluorobenzoyl)-2-oxopyridin-1(2H)-yl]-3,5-difluorophenyl}ethyl)-O-tert-butyl-L-serinate], the IC50 at p38 MAP Kinase a and in the assay on THP-1 TNFα release was under 100 nM each time.
As to `CC(C)(C)OC(=O)[C@@H](NCCc1cc(F)c(-n2c(N)c(C(=O)c3ccc(F)cc3F)ccc2=O)c(F)c1)c1ccc(F)cc1` [Example 48, tert-butyl (2S)-{[2-(4-{6-amino-5-[(2,4-difluorophenyl)carbonyl]-2-oxopyridin-1(2H)-yl}-3,5-difluorophenyl)ethyl]amino}(4-fluorophenyl)ethanoate], in the assay on THP-1 TNFα release, the IC50 was under 100 nM.
Turning to `CC(C)C[C@@H](NCCc1cc(F)c(-n2c(N)c(C(=O)c3ccc(F)cc3F)ccc2=O)c(F)c1)C(=O)OC1CCCC1` [Example 38, Cyclopentyl N-(2-{4-[6-amino-5-(2,4-difluorobenzoyl)-2-oxopyridin-1(2H)-yl]-3,5-difluorophenyl}ethyl)-D-leucinate], the IC50 at p38 MAP Kinase a is 100 to 1000 nM; in the assay on THP-1 TNFα release it was under 100 nM.
Taken in the same sequence, the figures for `Nc1c(C(=O)c2ccc(F)cc2)ccc(=O)n1-c1c(F)cc(CCN[C@H](C(=O)OC2CCCC2)C2CCCCC2)cc1F` [Example 28, Cyclopentyl (2S)-[(2-{4-[6-amino-5-(4-fluorobenzoyl)-2-oxopyridin-1(2H)-yl]-3,5-difluorophenyl}ethyl)amino](cyclohexyl)acetate] were 100 to 1000 nM and 100 to 1000 nM.
Taken in the same sequence, the figures for `CC(C)(C)OC(=O)[C@@H](NCCc1ccc(-n2c(N)c(C(=O)c3ccc(F)cc3F)ccc2=O)cc1)C(C)(C)C` [Example 8, tert-butyl N-[2-(4-{6-amino-5-[(2,4-difluorophenyl)carbonyl]-2-oxopyridin-1(2H)-yl}phenyl)ethyl]-3-methyl-L-valinate] were 100 to 1000 nM and over 1000 nM.
`Nc1c(C(=O)c2ccc(F)cc2F)ccc(=O)n1-c1c(F)cc(CCN[C@@H](C(=O)OC2CCCC2)c2ccccc2)cc1F` [Example 42, Cyclopentyl (2R)-[(2-{4-[6-amino-5-(2,4-difluorobenzoyl)-2-oxopyridin-1(2H)-yl]-3,5-difluorophenyl}ethyl)amino](phenyl)acetate]: the IC50 on p38 MAP Kinase a and in the assay with THP-1 TNFα release was under 100 nM each time.
On to `CC(C)C[C@H](NCCc1cc(F)c(-n2c(N)c(C(=O)c3ccc(F)cc3)ccc2=O)c(F)c1)C(=O)OC(C)(C)C` [Example 25, tert-butyl N-(2-{4-[6-amino-5-(4-fluorobenzoyl)-2-oxopyridin-1(2H)-yl]-3,5-difluorophenyl}ethyl)-L-leucinate], for which the IC50 on p38 MAP Kinase a was 100 to 1000 nM; in the assay on THP-1 TNFα release, under 100 nM.
Taken in the same sequence, the figures for `CC(C)C[C@H](NCCc1cc(F)c(-n2c(N)c(C(=O)c3ccc(F)cc3)ccc2=O)c(F)c1)C(=O)OC1CCCC1` [Example 24, Cyclopentyl N-(2-{4-[6-amino-5-(4-fluorobenzoyl)-2-oxopyridin-1(2H)-yl]-3,5-difluorophenyl}ethyl)-L-leucinate] were under 100 nM and under 100 nM.
For the compound `CC(C)C[C@@H](NCCc1cc(F)c(-n2c(N)c(C(=O)c3ccc(F)cc3F)ccc2=O)c(F)c1)C(=O)OC(C)(C)C` [Example 39, tert-butyl N-(2-{4-[6-amino-5-(2,4-difluorobenzoyl)-2-oxopyridin-1(2H)-yl]-3,5-difluorophenyl}ethyl)-D-leucinate], the IC50 at p38 MAP Kinase a was 100 to 1000 nM; in the assay with THP-1 TNFα release, under 100 nM.
On to `Nc1c(C(=O)c2ccc(F)cc2F)ccc(=O)n1-c1c(F)cc(CCN[C@H](C(=O)OC2CCCC2)c2ccc(F)cc2)cc1F` [Example 47, Cyclopentyl (2S)-{[2-(4-{6-amino-5-[(2,4-difluorophenyl)carbonyl]-2-oxopyridin-1(2H)-yl}-3,5-difluorophenyl)ethyl]amino}(4-fluorophenyl)ethanoate], for which the IC50 in the assay with THP-1 TNFα release is under 100 nM.
`CC(C)(C)OC[C@H](NCCc1cc(F)c(-n2c(N)c(C(=O)c3ccc(F)cc3)ccc2=O)c(F)c1)C(=O)O` [Example 65, N-(2-{4-[6-amino-5-(4-fluorobenzoyl)-2-oxopyridin-1(2H)-yl]-3,5-difluorophenyl}ethyl)-O-tert-butyl-L-serine]: the IC50 on p38 MAP Kinase a was under 100 nM.
In the case of `Nc1c(C(=O)c2ccc(F)cc2F)ccc(=O)n1-c1ccc(CCN[C@H](C(=O)OC2CCCC2)C2CCCCC2)cc1` [Example 3, Cyclopentyl (2S)-{[2-(4-{6-amino-5-[(2,4-difluorophenyl)carbonyl]-2-oxopyridin-1(2H)-yl}phenyl)ethyl]amino}(cyclohexyl)ethanoate], at p38 MAP Kinase a, the IC50 is 100 to 1000 nM.
With `C[C@@H](O)[C@H](NCCc1ccc(-n2c(N)c(C(=O)c3ccc(F)cc3F)ccc2=O)cc1)C(=O)O` [Example 58, N-[2-(4-{6-amino-5-[(2,4-difluorophenyl)carbonyl]-2-oxopyridin-1(2H)-yl}phenyl)ethyl]-L-threonine], the IC50 on p38 MAP Kinase a was under 100 nM.
As to `Nc1c(C(=O)c2ccc(F)cc2F)ccc(=O)n1-c1ccc(CCN[C@@H](Cc2ccccc2)C(=O)O)cc1` [Example 61, N-[2-(4-{6-amino-5-[(2,4-difluorophenyl)carbonyl]-2-oxopyridin-1(2H)-yl}phenyl)ethyl]-L-phenylalanine], the IC50 at p38 MAP Kinase a is under 100 nM.
On the same count and under the same terms, the figure for `CC(C)C[C@H](NCCc1cc(F)c(-n2c(N)c(C(=O)c3ccc(F)cc3F)ccc2=O)c(F)c1)C(=O)O` [Example 67, N-(2-{4-[6-amino-5-(2,4-difluorobenzoyl)-2-oxopyridin-1(2H)-yl]-3,5-difluorophenyl}ethyl)-L-leucine] is under 100 nM.
For the compound `CC(C)(C)OC(=O)[C@@H](NCCc1cc(F)c(-n2c(N)c(C(=O)c3ccc(F)cc3F)ccc2=O)c(F)c1)c1ccccc1` [Example 35, tert-butyl (2S)-[(2-{4-[6-amino-5-(2,4-difluorobenzoyl)-2-oxopyridin-1(2H)-yl]-3,5-difluorophenyl}ethyl)amino](phenyl)acetate], the IC50 in the assay on THP-1 TNFα release is under 100 nM.
On to `CC(C)(C)OC[C@H](NCCc1ccc(-n2c(N)c(C(=O)c3ccc(F)cc3F)ccc2=O)cc1)C(=O)O` [Example 56, N-[2-(4-{6-amino-5-[(2,4-difluorophenyl)carbonyl]-2-oxopyridin-1(2H)-yl}phenyl)ethyl]-O-tert-butyl-L-serine], for which the IC50 on p38 MAP Kinase a was under 100 nM.
The same measure, in the same setting: the figure for `CC(C)C[C@H](NCCc1ccc(-n2c(N)c(C(=O)c3ccc(F)cc3F)ccc2=O)cc1)C(=O)O[C@H]1C[C@@H](C)CC[C@@H]1C(C)C` [Example 14, (1S,2R,5S)-2-Isopropyl-5-methylcyclohexyl N-(2-{4-[6-amino-5-(2,4-difluorobenzoyl)-2-oxopyridin-1(2H)-yl]phenyl}ethyl)-L-leucinate] is over 1000 nM; for `Nc1c(C(=O)c2ccc(F)cc2F)ccc(=O)n1-c1ccc(CCN[C@@H](CO)C(=O)O)cc1` [Example 57, N-[2-(4-{6-amino-5-[(2,4-difluorophenyl)carbonyl]-2-oxopyridin-1(2H)-yl}phenyl)ethyl]-L-serine] it is under 100 nM.

For the origin of these results see US20100267774A1, “P38 MAP KINASE INHIBITORS” (CHROMA THERAPEUTICS LTD., priority 2007, published 2010).
